Measurements reported in PubChem BioAssay (NCI).
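Where inhibition never reached the appropriate level, the endpoint shown equals the highest concentration tested. Otherwise, values were interpolated linearly from a five-concentration, 48-hour dose response in 96-well plates. GI50 = concentration required for 50% inhibition of growth. TGI marks complete inhibition of growth.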

Legend:
Experiment in all cases: NCI tumour cell line growth inhibition, 48 h
SK-MEL-2 melanoma = system: SK-MEL-2 melanoma
SK-MEL-5 melanoma = system: SK-MEL-5 melanoma
MOLT-4 leukemia = system: MOLT-4 leukemia
SNB-19 CNS = system: SNB-19 CNS
ACHN renal = system: ACHN renal
OVCAR-8 ovarian = system: OVCAR-8 ovarian
NCI-H522 lung = system: NCI-H522 lung
NCI-H226 lung = system: NCI-H226 lung
SF-295 CNS = system: SF-295 CNS
K-562 leukemia = system: K-562 leukemia

Row | SMILES | GI50 (SK-MEL-2 melanoma) | TGI (SK-MEL-2 melanoma) | GI50 (SK-MEL-5 melanoma) | TGI (SK-MEL-5 melanoma) | GI50 (MOLT-4 leukemia) | TGI (MOLT-4 leukemia) | GI50 (SNB-19 CNS) | TGI (SNB-19 CNS) | GI50 (ACHN renal) | TGI (ACHN renal) | GI50 (OVCAR-8 ovarian) | TGI (OVCAR-8 ovarian) | GI50 (NCI-H522 lung) | TGI (NCI-H522 lung) | GI50 (NCI-H226 lung) | TGI (NCI-H226 lung) | GI50 (SF-295 CNS) | TGI (SF-295 CNS) | GI50 (K-562 leukemia) | TGI (K-562 leukemia)
1 | C/C=C/C/C=C/[C@H](C)C[C@H](O)[C@@H]1C[C@@H]2O[C@H]2/C=C/[C@@H]2OC(C)(C)O[C@H]2/C=C/C[C@H](C)CC(=O)O1 | 39.3 µM | > 100 µM | 4.39 µM | 44 µM | 3.94 µM | 37.4 µM | 21.7 µM | > 100 µM | 6.05 µM | > 100 µM | 3.7 µM | > 100 µM | 3.6 µM | 31.9 µM | 6.08 µM | > 100 µM | 6.06 µM | 60.8 µM | 4.79 µM | > 100 µM
2 | COCCOCCOCc1n(Cc2ccc3ccccc3c2)c2ccccc2[n+]1Cc1ccc2ccccc2c1 | 0.313 µM | 0.941 µM | 0.216 µM | 0.544 µM | 0.693 µM | 2.43 µM | 0.377 µM | 1.59 µM | 2.16 µM | 5.37 µM | 0.421 µM | 1.74 µM | 0.303 µM | 1.3 µM | 0.957 µM | 2.53 µM | 0.691 µM | 2.16 µM | 0.239 µM | 1.46 µM
3 | N#COc1ccc(Oc2ccccc2)cc1 |  | > 100 µM |  | > 100 µM |  | > 100 µM |  | > 100 µM |  | > 100 µM |  | > 100 µM |  | > 100 µM |  | > 100 µM |  | > 100 µM |  | > 100 µM
4 | Cn1c(=O)nc2n(-c3ccc(Cl)cc3)c(-c3ccccc3)c(-c3ccccc3)nc-2c1=O |  | 60 µM |  | 53.5 µM |  | 53.4 µM |  | > 100 µM |  | 49.8 µM |  | > 100 µM |  | > 100 µM |  | 58.8 µM |  | > 100 µM |  | > 100 µM
5 | CC1=C(/C=C/C(=O)CC(=O)/C=C/C2=C(C)CCCC2(C)C)C(C)(C)CCC1 | 20.3 µM | 77.8 µM | 22.1 µM | 91.8 µM | 6.51 µM | 32.6 µM | 33.2 µM | > 100 µM | 34.3 µM | > 100 µM | 30.3 µM | > 100 µM | 26.5 µM | > 100 µM | 23.3 µM | > 100 µM | 15.6 µM | 54.4 µM | 18.7 µM | > 100 µM
6 | O=C1CC[C@H](N2Cc3c(OCc4ccc(CN5CCOCC5)cc4)cccc3C2=O)C(=O)N1 | > 100 µM | > 100 µM | > 100 µM | > 100 µM | > 100 µM | > 100 µM | > 100 µM | > 100 µM | > 100 µM | > 100 µM | > 100 µM | > 100 µM | > 100 µM | > 100 µM | > 100 µM | > 100 µM | > 100 µM | > 100 µM | > 100 µM | > 100 µM
7 | c1ccc(CN2CCc3[nH]c4ccccc4c3C2)cc1 |  | 41.1 µM |  | 31.3 µM |  | 66.1 µM |  | > 95.7 µM |  | 99.8 µM |  | > 77.4 µM |  | 42.4 µM |  | > 96.8 µM |  | 65.9 µM |  | 55.1 µM
